Tests used:
Assay type in all cases: cell-based, human
[1] = tested on: 5-HT receptor 1E, mRNA (HTR1E); assay: Microarray gene expression in CD3+ lymphocytes, HTR1E; conditions: 4 h, probe 1794095
Method: (§1) CD3+ lymphocytes were isolated from the blood of haematologically normal volunteers. Cells placed into 25 cm^3 flasks at a concentration of 1×10^6/ml, and left to equilibrate in an incubator with a humidified atmosphere and 5% CO2 in air at 37° C. […] RNA extraction was performed using Trizol according to standard procedures, before being processed for microarray analysis according to the standard methodologies. Briefly, equal amounts of biotinylated cRNA was hybridised to the Illumina human HT12-v3 arrays for 18 h and subsequently processed according to manufacturer's instructions before scanning on an Illumina BeadArray Reader. The image data were processed using default values in GenomeStudio v2009.1 with imputation of missing data, before loading onto GeneSpring v9.0 for data normalisation and filtering. Data analyses were performed using Excel software, and the ratio of gene expression signals in treated vs. untreated calculated.

[2] = tested on: 5-HT receptor 2B, mRNA (HTR2B); assay: Microarray gene expression in CD3+ lymphocytes, HTR2B; conditions: 4 h, probe 1735764
Method: as §1

[3] = tested on: 5-HT receptor 3A, transcript variant 2, mRNA (HTR3A); assay: Microarray gene expression in CD3+ lymphocytes, HTR3A transcript variant 2; conditions: 4 h, probe 2371079
Method: as §1

[4] = tested on: 5-HT receptor 3A, transcript variant 1, mRNA (HTR3A); assay: Microarray gene expression in CD3+ lymphocytes, HTR3A transcript variant 1; conditions: naltrexone 10 nM, 4 h, probe 1681492
Method: as §1

[5] = tested on: 5-HT receptor 4, transcript variant a, mRNA (HTR4); assay: Microarray gene expression in CD3+ lymphocytes, HTR4 transcript variant a; conditions: 4 h, probe 1676350
Method: as §1

[6] = tested on: 5-HT receptor 4, transcript variant hb, mRNA (HTR4); assay: Microarray gene expression in CD3+ lymphocytes, HTR4 transcript variant hb; conditions: naltrexone 10 nM, 4 h, probe 1808258
Method: as §1

[7] = tested on: mRNA for one or more of 5-HT receptor proteins; assay: Microarray gene expression in CD3+ lymphocytes, overall statement; conditions: both higher dose and low dose naltrexone, 4 h
Method: as §1

## O=C1CC[C@@]2(O)[C@H]3Cc4ccc(O)c5c4[C@@]2(CCN3CC2CC2)[C@H]1O5 [NTX, morphinan-6-one,17-(cyclopropylmethyl)-4,5-epoxy-3,14-dihydroxy-(5α)]
[1]; naltrexone 10 nM
  gene expression signal, LDN: 101.20
[1]; naltrexone 10 uM
  gene expression signal, NTX: 95.70
[2]; naltrexone 10 nM
  gene expression signal, LDN: 147.45
[2]; naltrexone 10 uM
  gene expression signal, NTX: 177.95
[3]; naltrexone 10 nM
  gene expression signal, LDN: 124.70
[3]; naltrexone 10 uM
  gene expression signal, NTX: 151.75
[4]
  gene expression signal, LDN: 94.00
[5]; naltrexone 10 nM
  gene expression signal, LDN: 100.20
[5]; naltrexone 10 uM
  gene expression signal, NTX: 96.10
[6]
  gene expression signal, LDN: 93.50
[7]
  levels of mRNA for one or more of 5-HT receptor proteins: increase the levels of mRNA

From patent US20250281481A1, “NALTREXONE FOR BOOSTING THE THERAPEUTIC UTILTY OF 5-HT RECEPTOR AGONISTS” (LDN Pharma Limited, priority 2021, published 2025)
